Laboratory results: PubChem BioAssay (NCI)
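How tested: cells in 96-well plates exposed to compound for 48 hours at five concentrations. TGI is the concentration that stops growth completely.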

Legend:
Test in all cases: NCI-60 cell line screen, 48 h
[1] = system: 786-0 renal
[2] = system: A498 renal
[3] = system: A549 NSCLC
[4] = system: ACHN renal
[5] = system: BT-549 breast
[6] = system: CAKI-1 renal
[7] = system: CCRF-CEM leukemia
[8] = system: COLO 205 colon
[9] = system: DU-145 prostate
[10] = system: EKVX NSCLC
[11] = system: HCT-116 colon
[12] = system: HCT-15 colon
[13] = system: HL-60(TB) leukemia
[14] = system: HOP-62 NSCLC
[15] = system: HOP-92 NSCLC
[16] = system: HS 578T breast
[17] = system: HT29 colon
[18] = system: IGROV1 ovarian
[19] = system: K-562 leukemia
[20] = system: KM12 colon
[21] = system: LOX IMVI melanoma
[22] = system: M14 melanoma
[23] = system: MALME-3M melanoma
[24] = system: MCF7 breast
[25] = system: MDA-MB-231 breast
[26] = system: MDA-MB-435
[27] = system: MDA-N
[28] = system: MOLT-4 leukemia
[29] = system: NCI-H226 lung
[30] = system: NCI-H23 lung
[31] = system: NCI-H460 lung
[32] = system: NCI-H522 lung
[33] = system: NCI/ADR-RES ovarian
[34] = system: OVCAR-3 ovarian
[35] = system: OVCAR-4 ovarian
[36] = system: OVCAR-5 ovarian
[37] = system: OVCAR-8 ovarian
[38] = system: PC-3 prostate
[39] = system: RPMI-8226 leukemia
[40] = system: RXF 393 renal
[41] = system: SF-268 CNS
[42] = system: SF-295 CNS
[43] = system: SF-539 CNS
[44] = system: SK-MEL-2 melanoma
[45] = system: SK-MEL-28 melanoma
[46] = system: SK-MEL-5 melanoma
[47] = system: SK-OV-3 ovarian
[48] = system: SN12C renal
[49] = system: SNB-19 CNS
[50] = system: SR leukemia
[51] = system: SW-620 colon
[52] = system: T-47D breast
[53] = system: TK-10 renal
[54] = system: U251 CNS
[55] = system: UACC-257 melanoma
[56] = system: UACC-62 melanoma
[57] = system: UO-31 renal
[58] = system: HCC-2998 colon
[59] = system: SNB-75 CNS

`Cn1c(=O)c2[nH]c(/N=N/N3CCN(CCO)CC3)nc2n(C)c1=O` was tested, and the TGI [1] was over 100 µM, the TGI [2] was over 100 µM and the TGI [3] was over 100 µM. The TGI [4] was over 100 µM, the TGI [5] was over 100 µM and the TGI [6] was over 100 µM. The TGI [7] was over 100 µM, the TGI [8] was over 100 µM and the TGI [9] was over 100 µM. For the same compound, the TGI [10] was over 100 µM, the TGI [11] was over 100 µM and the TGI [12] was over 100 µM. The TGI [13] was over 100 µM, the TGI [14] was over 100 µM and the TGI [15] was over 100 µM. It also gave a TGI [16] of over 100 µM, a TGI [17] of over 100 µM and a TGI [18] of over 100 µM. It also gave a TGI [19] of over 100 µM, a TGI [20] of over 100 µM and a TGI [21] of over 100 µM. It also gave a TGI [22] of over 100 µM, a TGI [23] of over 100 µM and a TGI [24] of over 100 µM. The TGI [25] was over 100 µM, the TGI [26] was over 100 µM and the TGI [27] was over 100 µM. The TGI [28] was over 100 µM, the TGI [29] was over 100 µM and the TGI [30] was over 100 µM. For the same compound, the TGI [31] was over 100 µM, the TGI [32] was over 100 µM and the TGI [33] was over 100 µM. It also gave a TGI [34] of over 100 µM, a TGI [35] of over 100 µM and a TGI [36] of over 100 µM. For the same compound, the TGI [37] was over 100 µM, the TGI [38] was over 100 µM and the TGI [39] was over 100 µM. For the same compound, the TGI [40] was over 100 µM, the TGI [41] was over 100 µM and the TGI [42] was over 100 µM. It also gave a TGI [43] of over 100 µM, a TGI [44] of over 100 µM and a TGI [45] of over 100 µM. It also gave a TGI [46] of over 100 µM, a TGI [47] of over 100 µM and a TGI [48] of over 100 µM. It also gave a TGI [49] of over 100 µM, a TGI [50] of over 100 µM and a TGI [51] of over 100 µM. The TGI [52] was over 100 µM, the TGI [53] was over 100 µM and the TGI [54] was over 100 µM. For the same compound, the TGI [55] was over 100 µM, the TGI [56] was over 100 µM and the TGI [57] was over 100 µM.
With `COc1ccc(OC)c2sc(N3C(=O)/C(=C/Cc4ccco4)N=C3c3ccccc3)nc12` the TGI [1] was over 100 µM, the TGI [2] was over 100 µM and the TGI [3] was over 100 µM. It also gave a TGI [4] of 73 µM, a TGI [5] of over 100 µM and a TGI [6] of over 100 µM. The TGI [7] was 26.9 µM, the TGI [8] was over 100 µM and the TGI [9] was over 100 µM. It also gave a TGI [10] of over 100 µM, a TGI [58] of over 100 µM and a TGI [11] of 98.9 µM. It also gave a TGI [12] of over 100 µM, a TGI [13] of 37.9 µM and a TGI [14] of over 100 µM. The TGI [15] was over 100 µM, the TGI [16] was over 100 µM and the TGI [17] was over 100 µM. It also gave a TGI [18] of over 100 µM, a TGI [19] of over 100 µM and a TGI [20] of over 100 µM. For the same compound, the TGI [21] was 70 µM, the TGI [22] was over 100 µM and the TGI [24] was 35.7 µM. For the same compound, the TGI [25] was over 100 µM, the TGI [26] was 60.8 µM and the TGI [27] was 48.3 µM. It also gave a TGI [28] of 70.9 µM, a TGI [31] of over 100 µM and a TGI [33] of over 100 µM. For the same compound, the TGI [34] was over 100 µM, the TGI [35] was over 100 µM and the TGI [36] was over 100 µM. It also gave a TGI [37] of over 100 µM, a TGI [38] of 71.5 µM and a TGI [39] of over 100 µM. For the same compound, the TGI [41] was over 100 µM, the TGI [42] was over 100 µM and the TGI [43] was over 100 µM. It also gave a TGI [44] of 67.3 µM, a TGI [45] of over 100 µM and a TGI [46] of 80.5 µM. The TGI [47] was over 100 µM, the TGI [48] was 80 µM and the TGI [49] was over 100 µM. For the same compound, the TGI [59] was 57.8 µM, the TGI [50] was 43.9 µM and the TGI [51] was over 100 µM. It also gave a TGI [52] of 79.8 µM, a TGI [53] of over 100 µM and a TGI [54] of 54.1 µM. It also gave a TGI [55] of over 100 µM, a TGI [56] of 51.1 µM and a TGI [57] of 80.8 µM.
For `Cc1c2cnccc2c(C)c2c1[nH]c1ccc(O)cc12`, the TGI [1] was 1.42 µM, the TGI [3] was over 10 µM and the TGI [4] was 8.29 µM. It also gave a TGI [5] of over 10 µM, a TGI [6] of over 10 µM and a TGI [7] of over 10 µM. The TGI [8] was over 10 µM, the TGI [9] was 5.83 µM and the TGI [10] was over 10 µM. The TGI [58] was over 10 µM, the TGI [11] was 2.2 µM and the TGI [12] was over 10 µM. For the same compound, the TGI [13] was 2.98 µM, the TGI [14] was 2.75 µM and the TGI [16] was over 10 µM. For the same compound, the TGI [17] was over 10 µM, the TGI [18] was over 10 µM and the TGI [19] was over 10 µM. It also gave a TGI [20] of 2.34 µM, a TGI [21] of 1.71 µM and a TGI [22] of over 10 µM. The TGI [23] was 8.28 µM, the TGI [24] was 5.34 µM and the TGI [25] was 4.13 µM. For the same compound, the TGI [26] was 8.73 µM, the TGI [27] was over 10 µM and the TGI [28] was over 10 µM. The TGI [29] was over 10 µM, the TGI [30] was 8.25 µM and the TGI [31] was 2.63 µM. The TGI [32] was over 10 µM, the TGI [33] was 8.11 µM and the TGI [34] was 3.91 µM. For the same compound, the TGI [35] was 8 µM, the TGI [36] was over 10 µM and the TGI [37] was 3.41 µM. It also gave a TGI [38] of over 10 µM, a TGI [39] of over 10 µM and a TGI [40] of 7.24 µM. For the same compound, the TGI [41] was over 10 µM, the TGI [42] was 5.57 µM and the TGI [43] was 2.41 µM. The TGI [44] was over 10 µM, the TGI [45] was 9.94 µM and the TGI [46] was over 10 µM. For the same compound, the TGI [47] was over 10 µM, the TGI [48] was 7.35 µM and the TGI [49] was over 10 µM. It also gave a TGI [59] of 8.09 µM, a TGI [50] of 2.88 µM and a TGI [51] of 7.03 µM. It also gave a TGI [52] of over 10 µM, a TGI [53] of over 10 µM and a TGI [54] of over 10 µM. The TGI [55] was over 10 µM and the TGI [56] was over 10 µM.
In the case of `CCOC(=O)c1ccc(C(=O)OCC)n1-c1cc2cc(c1)CSCc1cc(cc(-n3c(C(=O)OCC)ccc3C(=O)OCC)c1)CSC2`, the TGI [1] is reported as over 10 µM, the TGI [3] is reported as over 10 µM and the TGI [4] is reported as over 10 µM. For the same compound, the TGI [5] was over 10 µM, the TGI [6] was over 10 µM and the TGI [7] was over 10 µM. For the same compound, the TGI [8] was over 10 µM, the TGI [9] was over 10 µM and the TGI [10] was over 10 µM. The TGI [58] was over 10 µM, the TGI [11] was over 10 µM and the TGI [12] was over 10 µM. For the same compound, the TGI [13] was over 10 µM, the TGI [14] was over 10 µM and the TGI [15] was over 10 µM. The TGI [16] was over 10 µM, the TGI [17] was over 10 µM and the TGI [18] was over 10 µM. The TGI [19] was over 10 µM, the TGI [20] was over 10 µM and the TGI [21] was over 10 µM. For the same compound, the TGI [22] was over 10 µM, the TGI [23] was over 10 µM and the TGI [24] was over 10 µM. For the same compound, the TGI [25] was over 10 µM, the TGI [26] was over 10 µM and the TGI [27] was over 10 µM. The TGI [28] was over 10 µM, the TGI [29] was over 10 µM and the TGI [30] was over 10 µM. For the same compound, the TGI [31] was over 10 µM, the TGI [32] was over 10 µM and the TGI [33] was over 10 µM. For the same compound, the TGI [34] was over 10 µM, the TGI [35] was over 10 µM and the TGI [36] was over 10 µM. The TGI [37] was over 10 µM, the TGI [38] was over 10 µM and the TGI [39] was over 10 µM. For the same compound, the TGI [40] was over 10 µM, the TGI [41] was over 10 µM and the TGI [42] was over 10 µM. For the same compound, the TGI [43] was over 10 µM, the TGI [44] was over 10 µM and the TGI [45] was over 10 µM. The TGI [46] was over 10 µM, the TGI [47] was over 10 µM and the TGI [48] was over 10 µM. The TGI [49] was over 10 µM, the TGI [59] was over 10 µM and the TGI [50] was over 10 µM. It also gave a TGI [51] of over 10 µM, a TGI [52] of over 10 µM and a TGI [53] of over 10 µM. It also gave a TGI [54] of over 10 µM, a TGI [55] of over 10 µM and a TGI [56] of over 10 µM. For the same compound, the TGI [57] was over 10 µM.
